In US11919901B2 (Syndax Pharmaceuticals, Inc., priority 2021, dated 2024):

System: MV4-11 cells
Assay: Cell proliferation assay MV4;11 (CellTiter-Glo, 72 hours)
Assay type: cell-based
Conditions: Homo sapiens; MV4;11 leukemia cell line, 72 hours; read-out: MV4; 11 IC50
Method in brief: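 Luminescent CellTiter-Glo readout after 72 h culture, 37 °C, 5% CO2, expressed relative to vehicle-treated wells, with maximal inhibition taken at the highest dose. MLL-rearranged MV4-11 leukemia cells; final compound range 0.632 to 2000 nM in eight steps.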

Row | SMILES | IC50 [nM]
1 | CC(C)N(C(=O)c1cc(F)ccc1Oc1cncnc1N1CC2(CCN(C[C@@H]3CC[C@@H](NS(=O)(=O)N(C)C)CO3)CC2)C1)C1CC(F)(F)C1 [Example 113, N-(3,3-Difluorocyclobutyl)-2-((4-(7-(((2S,5R)-5-((N,N-dimethylsulfamoyl)amino)tetrahydro-2H-pyran-2-yl)methyl)-2,7-diazaspiro[3.5]nonan-2-yl)pyrimidin-5-yl)oxy)-5-fluoro-N-isopropylbenzamide] | < 100
2 | CCN(CC)S(=O)(=O)N[C@@H]1CC[C@@H](CN2CCC3(CC2)CN(c2ncncc2Oc2ccc(F)cc2C(=O)N(C(C)C)C2CC(F)(F)C2)C3)OC1 [Example 114, 2-((4-(7-(((2S,5R)-5-((N,N-Diethylsulfamoyl)amino)tetrahydro-2H-pyran-2-yl)methyl)-2,7-diazaspiro[3.5]nonan-2-yl)pyrimidin-5-yl)oxy)-N-(3,3-difluorocyclobutyl)-5-fluoro-N-isopropylbenzamide] | < 100
3 | CC(C)N(C(=O)c1cc(F)ccc1Oc1cncnc1N1CC2(CCN(C[C@@H]3CC[C@@H](NS(=O)(=O)C4COC4)CO3)CC2)C1)C1CC(F)(F)C1 [Example 115, N-(3,3-Difluorocyclobutyl)-5-fluoro-N-isopropyl-2-((4-(7-(((2S,5R)-5-(oxetane-3-sulfonamido)tetrahydro-2H-pyran-2-yl)methyl)-2,7-diazaspiro[3.5]nonan-2-yl)pyrimidin-5-yl)oxy)benzamide] | < 100
4 | CC(C)N(C(=O)c1cc(F)ccc1Oc1cncnc1N1CC2(CCN(C[C@@H]3CC[C@@H](NS(=O)(=O)N4CCOCC4)CO3)CC2)C1)C1CC(F)(F)C1 [Example 116, N-(3,3-Difluorocyclobutyl)-5-fluoro-N-isopropyl-2-((4-(7-(((2S,5R)-5-(morpholine-4-sulfonamido)tetrahydro-2H-pyran-2-yl)methyl)-2,7-diazaspiro[3.5]nonan-2-yl)pyrimidin-5-yl)oxy)benzamide] | < 100
5 | CC(C)N(C(=O)c1cc(F)ccc1Oc1cncnc1N1CC2(CCN(C[C@@H]3CC[C@@H](NS(N)(=O)=O)CO3)CC2)C1)C1CC(F)(F)C1 [Example 117, N-(3,3-Difluorocyclobutyl)-5-fluoro-N-isopropyl-2-((4-(7-(((2S,5R)-5-(sulfamoylamino)tetrahydro-2H-pyran-2-yl)methyl)-2,7-diazaspiro[3.5]nonan-2-yl)pyrimidin-5-yl)oxy)benzamide] | < 100
6 | CC(C)N(C(=O)c1cc(F)ccc1Oc1cncnc1N1CC2(CCN(C[C@@H]3CC[C@@H](NS(=O)(=O)N4CCC4)CO3)CC2)C1)C1CC(F)(F)C1 [Example 118, 2-((4-(7-(((2S,5R)-5-(Azetidine-1-sulfonamido)tetrahydro-2H-pyran-2-yl)methyl)-2,7-diazaspiro[3.5]nonan-2-yl)pyrimidin-5-yl)oxy)-N-(3,3-difluorocyclobutyl)-5-fluoro-N-isopropylbenzamide] | < 100
7 | CC(C)N(C(=O)c1cc(F)ccc1Oc1cncnc1N1CC2(CCN(C[C@@H]3CC[C@@H](NS(=O)(=O)N(C)C(C)C)CO3)CC2)C1)C1CC(F)(F)C1 [Example 119, N-(3,3-Difluorocyclobutyl)-5-fluoro-N-isopropyl-2-((4-(7-(((2S,5R)-5-((N-isopropyl-N-methylsulfamoyl)amino)tetrahydro-2H-pyran-2-yl)methyl)-2,7-diazaspiro[3.5]nonan-2-yl)pyrimidin-5-yl)oxy)benzamide] | < 100
8 | C[C@@H]1COC[C@@H](C)N1C(=O)c1cc(F)ccc1Oc1cncnc1N1CC2(CCN(C[C@@H]3CC[C@@H](NS(=O)(=O)c4ccccc4)CO3)CC2)C1 [Example 120, N-((3R,6S)-6-((2-(5-(2-((3R,5R)-3,5-Dimethylmorpholine-4-carbonyl)-4-fluorophenoxy)pyrimidin-4-yl)-2,7-diazaspiro[3.5]nonan-7-yl)methyl)tetrahydro-2H-pyran-3-yl)benzenesulfonamide] | < 100
9 | C[C@@H]1COC[C@@H](C)N1C(=O)c1cc(F)ccc1Oc1cncnc1N1CC2(CCN(C[C@@H]3CC[C@@H](NS(=O)(=O)N4CCC4)CO3)CC2)C1 [Example 121, N-((3R,6S)-6-((2-(5-(2-((3R,5R)-3,5-Dimethylmorpholine-4-carbonyl)-4-fluorophenoxy)pyrimidin-4-yl)-2,7-diazaspiro[3.5]nonan-7-yl)methyl)tetrahydro-2H-pyran-3-yl)azetidine-1-sulfonamide] | < 100
10 | Cc1nc(S(=O)(=O)N[C@@H]2CC[C@@H](CN3CCC4(CC3)CN(c3ncncc3Oc3ccc(F)cc3C(=O)N3[C@H](C)COC[C@H]3C)C4)OC2)cs1 [Example 122, N-((3R,6S)-6-((2-(5-(2-((3R,5R)-3,5-Dimethylmorpholine-4-carbonyl)-4-fluorophenoxy)pyrimidin-4-yl)-2,7-diazaspiro[3.5]nonan-7-yl)methyl)tetrahydro-2H-pyran-3-yl)-2-methylthiazole-4-sulfonamide] | < 100
11 | C[C@@H]1COC[C@@H](C)N1C(=O)c1cc(F)ccc1Oc1cncnc1N1CC2(CCN(C[C@@H]3CC[C@@H](NS(=O)(=O)N(C)C)CO3)CC2)C1 [Example 123, {[(3R,6S)-6-{[2-(5-{2-[(3R,5R)-3,5-Dimethylmorpholine-4-carbonyl]-4-fluorophenoxy}pyrimidin-4-yl)-2,7-diazaspiro[3.5]nonan-7-yl]methyl}oxan-3-yl]sulfamoyl}dimethylamine] | < 100
12 | C[C@@H]1COC[C@@H](C)N1C(=O)c1cc(F)ccc1Oc1cncnc1N1CC2(CCN(C[C@@H]3CC[C@@H](NS(=O)(=O)N4CCCC4)CO3)CC2)C1 [Example 124, N-((3R,6S)-6-((2-(5-(2-((3R,5R)-3,5-Dimethylmorpholine-4-carbonyl)-4-fluorophenoxy)pyrimidin-4-yl)-2,7-diazaspiro[3.5]nonan-7-yl)methyl)tetrahydro-2H-pyran-3-yl)pyrrolidine-1-sulfonamide] | < 100
13 | CCNS(=O)(=O)N[C@@H]1CC[C@@H](CN2CCC3(CC2)CN(c2ncncc2Oc2ccc(F)cc2C(=O)N2[C@H](C)COC[C@H]2C)C3)OC1 [Example 125, {[(3R,6S)-6-{[2-(5-{2-[(3R,5R)-3,5-Dimethylmorpholine-4-carbonyl]-4-fluorophenoxy}pyrimidin-4-yl)-2,7-diazaspiro[3.5]nonan-7-yl]methyl}oxan-3-yl]sulfamoyl}(ethyl)amine] | < 100
14 | C[C@@H]1COC[C@@H](C)N1C(=O)c1cc(F)ccc1Oc1cncnc1N1CC2(CCN(C[C@@H]3CC[C@@H](NS(=O)(=O)c4cnn(C)c4)CO3)CC2)C1 [Example 126, N-((3R,6S)-6-((2-(5-(2-((3R,5R)-3,5-Dimethylmorpholine-4-carbonyl)-4-fluorophenoxy)pyrimidin-4-yl)-2,7-diazaspiro[3.5]nonan-7-yl)methyl)tetrahydro-2H-pyran-3-yl)-1-methyl-1H-pyrazole-4-sulfonamide] | < 100
15 | C[C@@H]1COC[C@@H](C)N1C(=O)c1cc(F)ccc1Oc1cncnc1N1CC2(CCN(C[C@@H]3CC[C@@H](NS(=O)(=O)c4ccn(C)n4)CO3)CC2)C1 [Example 127, N-((3R,6S)-6-((2-(5-(2-((3R,5R)-3,5-Dimethylmorpholine-4-carbonyl)-4-fluorophenoxy)pyrimidin-4-yl)-2,7-diazaspiro[3.5]nonan-7-yl)methyl)tetrahydro-2H-pyran-3-yl)-1-methyl-1H-pyrazole-3-sulfonamide] | < 100
16 | CCN(C)S(=O)(=O)N[C@@H]1CC[C@@H](CN2CCC3(CC2)CN(c2ncncc2Oc2ccc(F)cc2C(=O)N2[C@H](C)COC[C@H]2C)C3)OC1 [Example 128, {[(3R,6S)-6-{[2-(5-{2-[(3R,5R)-3,5-Dimethylmorpholine-4-carbonyl]-4-fluorophenoxy}pyrimidin-4-yl)-2,7-diazaspiro[3.5]nonan-7-yl]methyl}oxan-3-yl]sulfamoyl}(ethyl)methylamine] | < 100
17 | C[C@@H]1COC[C@@H](C)N1C(=O)c1cc(F)ccc1Oc1cncnc1N1CC2(CCN(C[C@@H]3CC[C@@H](NS(=O)(=O)N(C)C4CC4)CO3)CC2)C1 [Example 129, N-{[(3R,6S)-6-{[2-(5-{2-[(3R,5R)-3,5-Dimethylmorpholine-4-carbonyl]-4-fluorophenoxy}pyrimidin-4-yl)-2,7-diazaspiro[3.5]nonan-7-yl]methyl}oxan-3-yl]sulfamoyl}-N-methylcyclopropanamine] | < 100
18 | C[C@@H]1COC[C@H](C)N1C(=O)c1cc(F)ccc1Oc1cncnc1N1CC2(CCN(C[C@@H]3CC[C@@H](NS(=O)(=O)c4ccccc4)CO3)CC2)C1 [Example 130, N-((3R,6S)-6-((2-(5-(2-((3S,5R)-3,5-Dimethylmorpholine-4-carbonyl)-4-fluorophenoxy)pyrimidin-4-yl)-2,7-diazaspiro[3.5]nonan-7-yl)methyl)tetrahydro-2H-pyran-3-yl)benzenesulfonamide] | < 100
19 | Cc1nc(S(=O)(=O)N[C@@H]2CC[C@@H](CN3CCC4(CC3)CN(c3ncncc3Oc3ccc(F)cc3C(=O)N3[C@H](C)COC[C@@H]3C)C4)OC2)cs1 [Example 131, N-((3R,6S)-6-((2-(5-(2-((3S,5R)-3,5-Dimethylmorpholine-4-carbonyl)-4-fluorophenoxy)pyrimidin-4-yl)-2,7-diazaspiro[3.5]nonan-7-yl)methyl)tetrahydro-2H-pyran-3-yl)-2-methylthiazole-4-sulfonamide] | < 100
20 | CC(C)N(C(=O)c1cc(F)ccc1Oc1cncnc1N1CC2(CCN(C[C@@H]3CC[C@@H](NS(=O)(=O)C(C)C)CO3)CC2)C1)[C@@H]1CCOC1 [Example 132, 5-Fluoro-N-isopropyl-2-((4-(7-(((2S,5R)-5-((1-methylethyl)sulfonamido)tetrahydro-2H-pyran-2-yl)methyl)-2,7-diazaspiro[3.5]nonan-2-yl)pyrimidin-5-yl)oxy)-N-((R)-tetrahydrofuran-3-yl)benzamide] | < 100
21 | CC(C)N(C(=O)c1cc(F)ccc1Oc1cncnc1N1CC2(CCN(C[C@@H]3CC[C@@H](NS(=O)(=O)N4CCC4)CO3)CC2)C1)[C@H]1CCOC1 [Example 134, 2-((4-(7-(((2S,5R)-5-(Azetidine-1-sulfonamido)tetrahydro-2H-pyran-2-yl)methyl)-2,7-diazaspiro[3.5]nonan-2-yl)pyrimidin-5-yl)oxy)-5-fluoro-N-isopropyl-N-((S)-tetrahydrofuran-3-yl)benzamide] | < 100
